“Also recorded” adds a separate entry of the source. Like-named read-outs stand apart in the source and are kept apart here.
Key:
[1] = tested on: Guinea Pig Tracheal Tissue; assay: Relaxation of guinea pig tracheal tissue in vitro; type: cell-based; settings: for Relaxation (×80) (± S.E.): Table B, standard error in parentheses
Experimental: Male guinea pigs weighing 200-500 g were killed by a blow on the head. A 20 mm length of trachea was dissected from each of the animals, transferred to a petri dish containing Krebs' solution aerated with 95% O2 and 5% CO2 at 37° C., and cut longitudinally opposite the tracheal muscle. The tissue was then cut transversely three quarters of the distance across; a second cut in the opposite direction again three quarters of the distance across the tissue was made, and the procedure was continued for the whole tissue. The ends of the trachea were pulled to form a zig-zag shaped strip. The tracheal strips used in the experiment were approximately 30 mm when extended under 0.25-0.5 g load in a tissue bath. Cotton thread was tied to one end of the tissues, and linen thread to the other. The tissues were attached via the linen thread to a glass hook in a 5 ml isolated tissue bath containing Krebs' solution at 37° C. aerated with a mixture of 95% O2 and 5% CO2. The opposite ends were attached via cotton thread to an isotonic transducer. The load on the transducer lever was small, usually 0.3 g, with a range of 0.25-0.5 g; and the magnification high, 80-fold using an appropriate twin-channel pen recorder. A minimum of thirty minutes was allowed before applying a drug to the tissues. Drugs were then applied (in volumes of 0.5 ml) at thirty minute intervals, being in contact with the tissue for five minutes followed by an overflow washout time of twenty seconds.

[2] = tested on: Histamine-Induced Bronchoconstriction; assay: Inhibition of histamine-induced bronchoconstriction in the anesthetized guinea pig in vivo by intravenous administration; settings: for ED50: Cavia porcellus, iv, i.v. 15 seconds prior to histamine
Experimental: (§1) Male albino guinea pigs (400-600 g; Dunkin-Hartley Strain) were anesthetized with pentobarbitone sodium (60 mg/kg intraperitoneally).
(§2) Trachea, external jugular vein and carotid artery were cannulated for recording ventilation, intravenous administration of drugs, and blood pressure respectively. The animals were artificially respired throughout the experiment. Electrocardiograms were also recorded. Respiratory flow was charted on a twin-channel recorder fixed to an SE differential pressure transducer.
(§3) Histamine was administered intravenously at 5 minute intervals. The test drug was administered intravenously 15 seconds prior to histamine in order to inhibit bronchoconstriction.

[3] = tested on: Histamine-Induced Bronchoconstriction; assay: Inhibition of intravenous histamine-induced bronchoconstriction in the anesthetized guinea pig by inhalational administration; type: in vivo
Experimental: as §1, §2, §3
Details of the procedure of this example are the same as those in preceding Example 2 with the exception that the test compounds were delivered in aerosol form into the trachea of the test aminals.

[4] = tested on: Convulsions Induced by Inhaled Histamine; assay: Delay of convulsions induced by inhaled histamine in conscious guinea pigs; type: in vivo, guinea pig
Experimental: Conscious male albino guinea pigs (Dunkin-Hartley strain) weighing 200-300 g were placed (singly) in a 5-liter transparent chamber for 1 minute and subjected to an aerosol of vehicle or test drug in solution, plus histamine (1% w/v).
The time from the beginning of the administration of the aerosol to the start of the first convulsion (when the guinea pig is immediately removed from the aerosol) is the pre-convulsion time. Twenty-four hours later the general procedure was repeated. Guinea pigs treated with the test drug on the first day were treated with vehicle on the second day and vice versa in a cross-over design. Maximum time allowed in the aerosol was 10 minutes. An ultrasonic humidifier was used to produce the aerosol.

Guinea Pig Ileum = assay: Antagonism to PGE1 in the guinea pig ileum in vitro; type: cell-based; settings: for antagonism of the effects of PGE1 in the guinea pig ileum: in vitro
Experimental: Preparations were placed in tissue chambers filled with Ringer-Tyrode solution at 37° C., bubbled with a mixture of 95% O2 and 5% CO2, and arranged for isometric recording with force displacement transducers. The segments were stretched to an initial tension of 1 g, and responses to a test concentration of acetylcholine (0.1 mcg/ml) were obtained every 5 minutes until two similar responses were observed (usually after four administrations). Responses to PGE1
(0.1 mcg/ml) were obtained and recorded at 5 minute intervals before and after 100 seconds of incubation with 0.1 and 1.0 mcg/ml of 1-decarboxy-1-hydroxymethyl-PGE1. Any direct contractile effect of the test compound was recorded and evaluated in terms of mean values in grams of tension developed at each concentration. Responses to the agonist observed after incubation with the test compound were expressed as percent of control responses. All drugs were administered in a volume of 0.1 ml.

Conscious Cat = assay: Tracheobronchial irritancy (coughing) in conscious cats after inhalation; type: in vivo; settings: for tracheobronchial irritancy compared with PGE1: inhalation, equivalent concentrations/dosages
Experimental: A test drug was given at concentrations from 0.01 μg/ml (up to 100 μg/ml) at two hour intervals exposing each cat for up to 10 minutes each time. If coughing occurred no further challenge was given that day. Two to three days later the other test substance was given. The aerosol was delivered from an ultrasonic nebulizer via rubber tubing connected to a face mask fitted to the cat. The animal was mildly restrained. Coughing was noted by an observer and also monitored by a microphone connected to a tape recorder.

[5] = tested on: mobilization of free fatty acids induced by epinephrine; settings: U.S. Pat. No. 3,636,120 (Pike); cited from earlier work
platelet aggregation = settings: U.S. Pat. No. 3,636,120 (Pike); cited from earlier work
[6] = listed as 1-decarboxy-1-methylhydroxy-PGE1
[7] = 0.10 μg/ml of stock solution aerosolized
[8] = 1.00 μg/ml of stock solution aerosolized

SMILES: CCCCC[C@H](O)/C=C/[C@H]1[C@H](O)CC(=O)[C@@H]1CCCCCCCO [1-Decarboxy-1-Hydroxymethyl-PGE1, 15(S)-1,11α,15α-trihydroxy-9-oxo-13-trans-prostene]
- Relaxation (×80) (± S.E.) ([1]; 0.001 μg/ml): 24 (18) mm
- Relaxation (×80), 1st Tissue ([1]; 0.01 μg/ml): 30 mm
- Relaxation (×80), 2nd Tissue ([1]; 0.01 μg/ml): 30 mm
- Relaxation (×80) (± S.E.) ([1]; 0.010 μg/ml): 59 (30) mm
- Relaxation (×80), Mean Response ([1]; 0.01 μg/ml): 30 mm
- Relaxation (×80), 1st Tissue ([1]; 0.10 μg/ml): 113 mm
- Relaxation (×80), 2nd Tissue ([1]; 0.10 μg/ml): 93 mm
- Relaxation (×80) (± S.E.) ([1]; 0.100 μg/ml): 79 (21) mm
- Relaxation (×80), Mean Response ([1]; 0.10 μg/ml): 104 mm
- Relaxation (×80), 1st Tissue ([1]; 1.00 μg/ml): 153 mm
- Relaxation (×80), 2nd Tissue ([1]; 1.00 μg/ml): 173 mm
- Relaxation (×80) (± S.E.) ([1]; 1.000 μg/ml): 104 (14) mm
- Relaxation (×80), Mean Response ([1]; 1.00 μg/ml): 163 mm
- Relaxation (×80), 1st Tissue ([1]; 10.00 μg/ml): 146 mm
- Relaxation (×80), 2nd Tissue ([1]; 10.00 μg/ml): 199 mm
- Relaxation (×80) (± S.E.) ([1]; 10.000 μg/ml): 105 (35) mm
- Relaxation (×80), Mean Response ([1]; 10.00 μg/ml): 172 mm
- times more potent than PGE1 in relaxing guinea pig tracheal tissue ([1]; at 0.001 μg/ml, relative to PGE1): 24 times
- comparative effectiveness vs PGE1 in relaxation of tracheal tissue ([1]; equivalent concentrations): clearly more effective at equivalent concentrations
- times more potent than PGE1 in relaxing guinea pig tracheal tissue in vitro ([1]; relative to PGE1, no concentration stated for this clause): 24 times
- Ratio of ID50 Values (A/B) ([2]; A = PGE1, B = 1-decarboxy-1-hydroxymethyl-PGE1, Experiment No. 1): 1.14
- Ratio of ID50 Values (A/B) ([2]; A = PGE1, B = 1-decarboxy-1-hydroxymethyl-PGE1, Experiment No. 2): 1.25
- Ratio of ID50 Values (A/B) ([2]; A = PGE1, B = 1-decarboxy-1-hydroxymethyl-PGE1, Experiment No. 3): 1.17
- Ratio of ID50 Values (A/B) ([2]; A = PGE1, B = 1-decarboxy-1-hydroxymethyl-PGE1, Experiment No. 4): 1.14
- Ratio of ID50 Values (A/B) ([2]; A = PGE1, B = 1-decarboxy-1-hydroxymethyl-PGE1, Experiment No. 5): 1.05
- Ratio of ID50 Values (A/B), Mean ([2]; A = PGE1, B = 1-decarboxy-1-hydroxymethyl-PGE1, mean): 1.17
- ED50 ([2]; Experiment No. 1, read-out: Dose I.V. inhibiting bronchoconstriction by 50% (ID50)): 0.529 µg/kg
- ED50 ([2]; Experiment No. 2, read-out: Dose I.V. inhibiting bronchoconstriction by 50% (ID50)): 0.733 µg/kg
- ED50 ([2]; Experiment No. 3, read-out: Dose I.V. inhibiting bronchoconstriction by 50% (ID50)): 0.225 µg/kg
- ED50 ([2]; Experiment No. 4, read-out: Dose I.V. inhibiting bronchoconstriction by 50% (ID50)): 0.756 µg/kg
- ED50 ([2]; Experiment No. 5, read-out: Dose I.V. inhibiting bronchoconstriction by 50% (ID50)): 0.193 µg/kg
- ED50 ([2]; mean of experiments 1-5, read-out: Dose I.V. inhibiting bronchoconstriction by 50% (ID50), Mean): 0.495 µg/kg
- Precent Inhibition of Histamine-Induced Bronchoconstriction ([3]; 0.001 μg/ml in stock solution aerosolized, inhalation): 24%
- times more effective than PGE1 in inhibition of histamine-induced bronchoconstriction ([3]; at 0.001 μg/ml, guinea pig in vivo, relative to PGE1): 4 times
- Prolongation of Preconvulsion Time ([4]; Expt. 1A, 0.10 μg/ml stock solution aerosolized, P <0.02): 99 s
- Prolongation of Preconvulsion Time ([4]; Expt. 1A, 0.50 μg/ml stock solution aerosolized, P <0.001): 140 s
- Prolongation of Preconvulsion Time ([4]; Expt. 1A, 2.50 μg/ml stock solution aerosolized, P <0.01): 141 s
- Prolongation of Preconvulsion Time ([4]; Expt. 1A, 10.00 μg/ml stock solution aerosolized, P <0.02): 181 s
- Prolongation of Preconvulsion Time ([4]; Expt. 2A, 0.01 μg/ml stock solution aerosolized, P <0.01): 54 s
- Prolongation of Preconvulsion Time ([4]; Expt. 2A, 0.10 μg/ml stock solution aerosolized, P <0.05): 41 s
- Prolongation of Preconvulsion Time ([4]; Expt. 2A, 1.00 μg/ml stock solution aerosolized, P <0.02): 108 s
- Prolongation of Preconvulsion Time ([4]; Expt. 2A, 10.00 μg/ml stock solution aerosolized, P <0.02): 198 s
- Prolongation of Preconvulsion Time ([4]; Expt. 2A, 25.00 μg/ml stock solution aerosolized, P <0.001): 302 s
- Direct Effect, gm tension (Guinea Pig Ileum; 0.1 mcg/ml): 0.0 gm tension
- Direct Effect, gm tension (Guinea Pig Ileum; 1.0 mcg/ml): 0.0 gm tension
- inhibition at 0.1 µg/mL (Guinea Pig Ileum; Cavia porcellus, 100 s, read-out: %-Blockade of Tissue Response to 0.1 mcg/ml of PGE1, 0.1 mcg/ml, 100 seconds of incubation): 38%
- inhibition at 1 µg/mL (Guinea Pig Ileum; Cavia porcellus, 100 s, read-out: %-Blockade of Tissue Response to 0.1 mcg/ml of PGE1, 1.0 mcg/ml, 100 seconds of incubation): 100%
- direct effect on the tissue (Guinea Pig Ileum; at the tested concentrations): no effect on the tissue at the tested concentrations
- antagonism of the effects of PGE1 in the guinea pig ileum (Guinea Pig Ileum): inhibits the effects of PGE1 in guinea pig ileum tissue in vitro
- antagonism of the effects of PGE1 in the guinea pig ileum (Guinea Pig Ileum; [6]): antagonizes the effects of PGE1 in the guinea pig ileum
- Incidence of Coughing in a Female (F) Cat (Conscious Cat; [7]): 0/3
- Incidence of Coughing in a Male (M) Cat (Conscious Cat; [7]): 0/3
- Incidence of Coughing in a Female (F) Cat (Conscious Cat; [8]): 1/3
- Incidence of Coughing in a Male (M) Cat (Conscious Cat; [8]): 0/3
- Incidence of Coughing in a Male (M) Cat (Conscious Cat; 10.00 μg/ml of stock solution aerosolized): 0/3
- Incidence of Coughing in a Male (M) Cat (Conscious Cat; 100.00 μg/ml of stock solution aerosolized): 0/2
- tracheobronchial irritancy compared with PGE1 (Conscious Cat): much lower incidence of tracheobronchial irritancy than does PGE1 at equivalent concentrations; also recorded: does not cause tracheal-bronchial irritation at equivalent dosages
- tracheobronchial irritancy compared with PGE1 (Conscious Cat; [6]): less irritating than PGE1
- effect on mobilization of free fatty acids induced by epinephrine [5]: antagonizes mobilization of free fatty acids induced by epinephrine
- effect on platelet aggregation (platelet aggregation): inhibits platelet aggregation

— patent publication US4022912A, “Use of 1-decarboxy-1-hydroxymethyl-PGE1 in therapeutic bronchodilation” (priority 1976, dated 1977)
